In article PMC8318231, “Rate-of-Kill (RoK) assays to triage large compound sets for Chagas disease drug discovery: Application to GSK Chagas Box” (PLoS Neglected Tropical Diseases, 2021):

System: T. cruzi intracellular amastigotes in H9c2 cells
Assay: Rate-of-Kill (RoK) high-content imaging assay, amastigotes per cell (AM/CELL) and curve descriptors
Format: cell-based, Trypanosoma cruzi
Design: key to ME_24h / ME_48h / ME_72h: % reduction in parasite burden (cidal response); t50pct_MCC50 / t50pct_Cmax: unit not given here
Conditions: for ME_24h: 24h; for ME_48h: 48h; for ME_72h: 72h; for t50%_Cmax / tlag_Cmax / t50pct_Cmax: at Cmax; for ME_24h (%): maximum effect at 24 h; for ME_24h (%) / ME_48h (%) / ME_72h (%): RoK assay; for ME_48h (%): maximum effect at 48 h; for ME_72h (%): maximum effect at 72 h; for ME 24h (maximum effect at 24 hours, intracellular amastigotes): maximum percentage of parasite burden reduction reached by any concentration
Experimental: For this high-content intracellular imaging assay, H9c2 cells were seeded in 225 cm^2 T- FLASK in DMEM with 10% FBS for 4 h to allow attachment. T. cruzi trypomastigotes, collected at days 5 to 8 after infection from LLC-MK2 parasite infected cultures, were allowed to swim out for 4 h at 37°C from a centrifuged pellet (1,600 x g / 10 min). Trypomastigotes were then collected and counted in a CASY Cell Counter using the 60 μm capillary. Trypomastigotes, in supplemented DMEM, were added to H9c2 cultures in a multiplicity of infection (MOI) of 8 and incubated for 18 h. Cells were washed once with PBS before incubation of the infected H9c2 monolayer with trypsin (Life-Technologies) to detach cells from the flask. Cells were counted in a CASY Cell Counter, using the 150 μm capillary, and their density set at 5 x 10^4 cells/mL in supplemented DMEM. Infected H9c2 were dispensed into 384-well plates at 50 μL per well using a Multidrop Combi dispenser. Control wells used to determine a 100% parasitic growth (full 6th column of each plate) were left untreated, whereas not infected cells were added in the control wells used as 0% parasite growth (or 100% parasite growth inhibition; full 18th column of each plate). The four plates corresponding to each RoK assay were predispensed for the same mother plate. […] Cultures were then fixed and stained with 50 μL per well of a PBS solution containing 4% formaldehyde and 2 μM DRAQ5 DNA dye (BioStatus, UK). Then plates were read in a PerkinElmer Opera Phenix using a 20x objective, 3 fields per well. DRAQ5 signal was detected using 640 nm excitation laser and a 690/50 nm emission detection filter. Automated image analysis was performed with a script developed on Acapella High Content Imaging and Analysis Software (PerkinElmer). Two outputs were provided for each sample well: (1) number of host cells nuclei to determine drug-related cytotoxicity (aka H9c2) and (2) number of amastigotes per cell as infection level measurement (aka AM/CELL). Each output is plotted as a time course for each compound at every concentration. This assay was adapted from Alonso-Padilla et al. and Peña et al..
To identify and classify the different compounds, the number of amastigotes per cell (AM/CELL) raw data obtained in rate of kill assay are normalised using the average of C1 (infected cells) at time 4 hours as 0% effect and the average of C2 (non-infected cells) for each time as 100% effect, according to the following Eq 1: %CIDALRESPONSE=100*[Avg_C14h-RawData]/[Avg_C14h-Avg_C2] (1)
• ME (Maximum Effect) is the maximum percentage of parasite burden reduction reached by any compound concentration. Compounds that decrease the initial parasite load will show a positive value of ME, whereas compounds that allow the progression of infection will render a negative ME value. […] It is calculated for the MCC50 (t50%_MCC50) and for the maximum concentration (t50%_Cmax). […] The value of this parameter is not either interpolated or extrapolated, and it refers to the first experimental time-course point at which a 50% of effect is reached or exceeded. • tlag defines the time elapsed for one particular concentration to reduce parasite burden between two consecutive points at any moment of the time course. It is calculated for the MCC50 (tlag_MCC50) and for the maximum concentration (tlag_Cmax). The value of this parameter is not either interpolated or extrapolated, and it refers to the first experimental time-course point of a positive slope in the normalised plot (i.e. %Cidal_Response). • Cmin_Tox (Minimal CytoToxic Concentration) is the lowest compound concentration that is reducing the number of host mammalian cells below 50% of initial cell density. Cytotoxic compounds may mislead a bona fide antiparasitic action.

## COc1ccc(NS(=O)(=O)c2cccc(NC(=O)c3cc(F)cc(F)c3)c2)cc1 [TCMDC-143108]
Figure 5
  ME_24h: 74.207
  ME_48h: 103.042
  ME_72h: 85.1326
  t50pct_Cmax: 24
  tlag_Cmax: 4
  MCCE: 1.852
RoK curve descriptor
  MCC50: 5.6 µM
  MCCE: 1.9 µM
Time 4, figure 4 A
  AM/CELL NORM: 3.957
Time 24, figure 4 A
  AM/CELL NORM: 27.4841
Time 48, figure 4 A
  AM/CELL NORM: 38.7704
Time 72, figure 4 A
  AM/CELL NORM: 44.9716
  t50%_Cmax: 24.0 h
  tlag_Cmax: 4.0 h
  ME_24h (%): 74.2%
  ME_48h (%): 103.0%
  ME_72h (%): 85.1%
  ME 24h (maximum effect at 24 hours, intracellular amastigotes): 70.2211%
At MCC50
  t50%_MCC50: 48.0 h
  tlag_MCC50: 14.0 h
At MCC50, figure 5
  t50pct_MCC50: 48
  tlag_MCC50: 14
Figure 5, in µM
  MCC50: 5.556

## Cc1c(C#N)c([N+](=O)[O-])nn1Cc1cccc(Cl)c1Cl [TCMDC-143152]
Figure 5
  ME_24h: 56.9761
  ME_48h: 166.798
  ME_72h: 160.217
  t50pct_Cmax: 24
  tlag_Cmax: 4
  MCCE: 0.6173
RoK curve descriptor
  MCC50: 1.9 µM
  MCCE: 0.6 µM
Time 4, sheet figure 4 A
  AM/CELL NORM: 5.197
Time 24, sheet figure 4 A
  AM/CELL NORM: 56.9761
Time 48, sheet figure 4 A
  AM/CELL NORM: 166.798
Time 72, sheet figure 4 A
  AM/CELL NORM: 160.217
  t50%_Cmax: 24.0 h
  tlag_Cmax: 4.0 h
  ME_24h (%): 57.0%
  ME_48h (%): 166.8%
  ME_72h (%): 160.2%
  ME 24h (maximum effect at 24 hours, intracellular amastigotes): 56.9761%
At MCC50
  t50%_MCC50: 48.0 h
  tlag_MCC50: 4.0 h
At MCC50, figure 5
  t50pct_MCC50: 48
  tlag_MCC50: 4
Figure 5, in µM
  MCC50: 1.852

## Cc1[nH]nc2c1C(c1ccc(OCc3ccccc3F)cc1)SCC(=O)N2 (stereo not shown) [TCMDC-143328]
Figure 5
  ME_24h: 2.825
  ME_48h: -7.539
  ME_72h: -52.7101
  t50pct_Cmax: 72
  tlag_Cmax: 24
  MCC50: 50 µM
  MCCE: 5.556
RoK curve descriptor
  MCCE: 5.6 µM
Time 4, sheet figure 4 A
  AM/CELL NORM: 25.0577
Time 24, sheet figure 4 A
  AM/CELL NORM: -15.4729
Time 48, sheet figure 4 A
  AM/CELL NORM: -7.539
Time 72, sheet figure 4 A
  AM/CELL NORM: -52.7101
  tlag_Cmax: 24.0 h
  ME_24h (%): 2.8%
  ME_48h (%): -7.5%
  ME_72h (%): -52.7%
  ME 24h (maximum effect at 24 hours, intracellular amastigotes): 2.825%
At MCC50, figure 5
  t50pct_MCC50: 72
  tlag_MCC50: 72

## CC(CNS(=O)(=O)c1ccc(OC(F)F)cc1)c1ccc(NC(=O)c2ccncc2)cc1 (stereo not shown) [TCMDC-143535]
Figure 5
  ME_24h: -92.8433
  ME_48h: -11.1799
  ME_72h: 45.5869
  t50pct_Cmax: 72
  tlag_Cmax: 24
  MCC50: 50 µM
  MCCE: 0.2058
RoK curve descriptor
  MCCE: 0.2 µM
Time 4, sheet figure 4 A
  AM/CELL NORM: 3.544
Time 24, sheet figure 4 A
  AM/CELL NORM: -92.8433
Time 48, sheet figure 4 A
  AM/CELL NORM: -15.4132
Time 72, sheet figure 4 A
  AM/CELL NORM: 37.7082
  tlag_Cmax: 24.0 h
  ME_24h (%): -92.8%
  ME_48h (%): -11.2%
  ME_72h (%): 45.6%
  ME 24h (maximum effect at 24 hours, intracellular amastigotes): -92.8433%
At MCC50, figure 5
  t50pct_MCC50: 72
  tlag_MCC50: 72

## O[C@H]1CC[C@H](Nc2nccc(-c3sc(C4CCOCC4)nc3-c3ccc(F)c(F)c3)n2)CC1 [TCMDC-143387]
Figure 5
  ME_24h: -7.952
  ME_48h: -1.621
  ME_72h: 23.2073
  t50pct_Cmax: 72
  tlag_Cmax: 24
  MCC50: 50 µM
  MCCE: 0.06859
RoK curve descriptor
  MCCE: 0.07 µM
Time 4, figure 4 A
  AM/CELL NORM: 2.207
Time 24, figure 4 A
  AM/CELL NORM: -7.952
Time 48, figure 4 A
  AM/CELL NORM: -3.462
Time 72, figure 4 A
  AM/CELL NORM: 23.2073
  tlag_Cmax: 24.0 h
  ME_24h (%): -8.0%
  ME_48h (%): -1.6%
  ME_72h (%): 23.2%
  ME 24h (maximum effect at 24 hours, intracellular amastigotes): -7.952%
At MCC50, figure 5
  t50pct_MCC50: 72
  tlag_MCC50: 72

## CC(C)N(C(=O)CN1C(=O)C(N)C(=O)N(c2ccccc2)c2ccccc21)c1ccccc1 (stereo not shown) [TCMDC-143071]
Figure 5
  ME_24h: -154.934
  ME_48h: -40.5762
  ME_72h: 63.3605
  t50pct_Cmax: 72
  tlag_Cmax: 24
  MCCE: 0.6173
RoK curve descriptor
  MCC50: 5.6 µM
  MCCE: 0.6 µM
Time 4, sheet figure 4 A
  AM/CELL NORM: -6.592
Time 24, sheet figure 4 A
  AM/CELL NORM: -184.227
Time 48, sheet figure 4 A
  AM/CELL NORM: -40.5762
Time 72, sheet figure 4 A
  AM/CELL NORM: 57.0597
  t50%_Cmax: 72.0 h
  tlag_Cmax: 24.0 h
  ME_24h (%): -154.9%
  ME_48h (%): -40.6%
  ME_72h (%): 63.4%
  ME 24h (maximum effect at 24 hours, intracellular amastigotes): -154.934%
At MCC50
  t50%_MCC50: 72.0 h
  tlag_MCC50: 24.0 h
At MCC50, figure 5
  t50pct_MCC50: 72
  tlag_MCC50: 24
Figure 5, in µM
  MCC50: 5.556

## O=C(O)/C=C\C(=O)O.O=C(c1ccc(OCCCc2cnc[nH]2)cc1)C1CC1 [TCMDC-143632]
Figure 5
  ME_24h: -9.2427
  ME_48h: 8.208
  ME_72h: 46.1088
  t50pct_Cmax: 72
  tlag_Cmax: 24
  MCC50: 50 µM
  MCCE: 5.556
RoK curve descriptor
  MCCE: 5.6 µM
Time 4, sheet figure 4 A
  AM/CELL NORM: 10.5519
Time 24, sheet figure 4 A
  AM/CELL NORM: -53.2211
Time 48, sheet figure 4 A
  AM/CELL NORM: -4.213
Time 72, sheet figure 4 A
  AM/CELL NORM: 38.8877
  tlag_Cmax: 24.0 h
  ME_24h (%): -9.2%
  ME_48h (%): 8.2%
  ME_72h (%): 46.1%
  ME 24h (maximum effect at 24 hours, intracellular amastigotes): -9.2427%
At MCC50, figure 5
  t50pct_MCC50: 72
  tlag_MCC50: 72

## CCCN1CCN(Cc2ccc(S(=O)(=O)Nc3cccc(C)c3)cc2)CC1.O=C(O)C(F)(F)F.O=C(O)C(F)(F)F [TCMDC-143550]
Figure 5
  ME_24h: -35.0895
  ME_48h: 33.2327
  ME_72h: 65.1227
  t50pct_Cmax: 72
  tlag_Cmax: 24
  MCCE: 0.6173
RoK curve descriptor
  MCC50: 1.9 µM
  MCCE: 0.6 µM
Time 4, sheet figure 4 A
  AM/CELL NORM: -2.745
Time 24, sheet figure 4 A
  AM/CELL NORM: -35.0895
Time 48, sheet figure 4 A
  AM/CELL NORM: 33.2327
Time 72, sheet figure 4 A
  AM/CELL NORM: 54.4775
  t50%_Cmax: 72.0 h
  tlag_Cmax: 24.0 h
  ME_24h (%): -35.1%
  ME_48h (%): 33.2%
  ME_72h (%): 65.1%
  ME 24h (maximum effect at 24 hours, intracellular amastigotes): -35.0895%
At MCC50
  t50%_MCC50: 72.0 h
  tlag_MCC50: 24.0 h
At MCC50, figure 5
  t50pct_MCC50: 72
  tlag_MCC50: 24
Figure 5, in µM
  MCC50: 1.852

## COc1cccc(C(=O)[C@H]2C[C@@H]2CN(Cc2cccnc2)Cc2cccnc2)c1 [TCMDC-143593]
Figure 5
  ME_24h: -243.773
  ME_48h: -91.7284
  ME_72h: 36.534
  t50pct_Cmax: 72
  tlag_Cmax: 24
  MCC50: 50 µM
  MCCE: 0.02286
RoK curve descriptor
  MCCE: 0.02 µM
Time 4, sheet figure 4 A
  AM/CELL NORM: -1.514
Time 24, sheet figure 4 A
  AM/CELL NORM: -270.363
Time 48, sheet figure 4 A
  AM/CELL NORM: -91.7284
Time 72, sheet figure 4 A
  AM/CELL NORM: -0.04888
  tlag_Cmax: 24.0 h
  ME_24h (%): -243.8%
  ME_48h (%): -91.7%
  ME_72h (%): 36.5%
  ME 24h (maximum effect at 24 hours, intracellular amastigotes): -243.773%
At MCC50, figure 5
  t50pct_MCC50: 72
  tlag_MCC50: 72
